In article PMC6479714, “Multiplex Analysis Platform for Endocrine Disruption Prediction Using Zebrafish” (International Journal of Molecular Sciences, 2019):
Several values for one entry are separate records, joined by “and”; a condition that tells them apart may be missing. Equal entries are not always repeated. Where two headings read alike, the source gives them in different places.

Tests used:
thyroid peroxidase (tpo) = experiment: tpo gene expression (qPCR) in exposed zebrafish embryos; format: in vivo, zebrafish (Danio rerio); settings: for EC50: Danio rerio, read-out: EC50 tpo
thyroid receptor α (trα) = experiment: trα gene expression (qPCR) in exposed zebrafish embryos; format: in vivo, zebrafish (Danio rerio); settings: exposed 48–120 hpf
transthyretin (ttr) = experiment: ttr gene expression (qPCR) in exposed zebrafish embryos; format: in vivo, zebrafish (Danio rerio); settings: exposed 48–120 hpf
[1] = test system: iodothyronine deiodinase 2 (dio2); experiment: dio2 gene expression (qPCR) in exposed zebrafish embryos; format: in vivo, zebrafish (Danio rerio)
tpo - mRNA = settings: 48-120 h, ref [32] (supplement list), cited from earlier work
[2] = listed physicochemical property, source not given; cited from earlier work
[3] = test system: brain aromatase (cyp19a1b); experiment: cyp19a1b gene expression (qPCR) in exposed zebrafish embryos; format: in vivo, zebrafish (Danio rerio); settings: Danio rerio; zebrafish embryos exposed 48–120 hpf; mRNA by qPCR
[4] = test system: cytosolic sulfotransferase 2 family 2 (sult2st3); experiment: sult2st3 gene expression (qPCR) in exposed zebrafish embryos; format: in vivo, zebrafish (Danio rerio); settings: for EC50: Danio rerio, read-out: EC50 sult2st3; for maximum FI / maximum average overexpression level above controls, sult2st3: exposed 48–120 hpf, times above controls
[5] = acute toxicity test from 48–120 hpf based on the OECD FET test; format: in vivo, zebrafish (Danio rerio); settings: in vivo; zebrafish embryos exposed 48–120 hpf
From the text: (§1) Twenty embryos per treatment were exposed to 5 concentrations of compound of interest in a 10× dilution factor from 48–120 hpf, which is the experimental time in which EDCs will be screened posteriorly. Embryos were exposed from 48–120 hpf rather than 0–96 hpf or 0–120 hpf to avoid unspecific toxicity outside of the EDC testing period, which have been chosen on the basis that endocrine pathways, e.g., thyroid metabolism, are not fully functional until 40–55 hpf in zebrafish embryos. Stock solutions of chemicals to be tested were freshly prepared in exposure medium. The highest concentration for each compound was selected according to its water solubility (Table S1). Exposures were performed in glass vessels to assure maximum bioavailability for hydrophobic compounds, and medium was not exchanged during the experiment.

vitellogenin 1 (vtg1) = experiment: vtg1 gene expression (qPCR) in exposed zebrafish embryos; settings: Danio rerio, read-out: EC50 vtg1
[6] = test system: cytochrome P450 2k22 (cyp2k22); experiment: cyp2k22 gene expression (qPCR) in exposed zebrafish embryos; settings: for EC50: Danio rerio, read-out: EC50 cyp2k22
cyp19a1b - fluorescence = settings: 0-96 h, cited from earlier work
cyp19a1b - mRNA = settings: 0-72 h, cited from earlier work
sult2st3 - cyp2k22 mRNA [7] = settings: 96-120 h, ref [31] (supplement list), cited from earlier work
cyp19a1b - vtg1 mRNA = experiment: estrogenic markers considered together (cyp19a1b - vtg1 mRNA), zebrafish embryos
sult2st3 - cyp2k22 mRNA [8] = experiment: androgenic markers considered together (sult2st3 - cyp2k22 mRNA), zebrafish embryos
zebrafish embryos = experiment: acute toxicity test from 48–120 hpf based on the OECD FET test; format: in vivo, zebrafish (Danio rerio); settings: zebrafish embryos exposed 48–120 hpf; highest concentration set by water solubility
From the text: as §1

[9] = log of EC50 in μM, 48-120 h, our study
[10] = NIL 1 µM co-exposed with TES 1 µM, reaching control levels

In the case of `Cn1cc[nH]c1=S` [MMI, methimazole], the EC50 (thyroid peroxidase (tpo); zebrafish embryos exposed 48–120 hpf, mRNA by qPCR) is reported as 397000 nM, the “LogEC50 (tpo - mRNA)” value (thyroid peroxidase (tpo); [9]) is reported as 2.599 and the “effect on trα expression” value (thyroid receptor α (trα)) is reported as “None of the other three remaining thyroid markers analyzed were affected”. For the same molecule, the “effect on ttr expression” value (transthyretin (ttr)) was “None of the other three remaining thyroid markers analyzed were affected”, the “effect on dio2 expression” value ([1]; exposed 48–120 hpf) was “None of the other three remaining thyroid markers analyzed were affected” and the EC50 (tpo - mRNA; main text refs 25, 29) was 487000 nM. For the same molecule, the “LogEC50 (tpo - mRNA)” value (tpo - mRNA; log of EC50 in μM) was 2.688 and the Water solubility [2] was 277.5 mg/mL.
With `C[C@]12CC[C@H]3[C@@H](CCC4=CC(=O)CC[C@@H]43)[C@@H]1CC[C@@H]2O` [NAN, nandrolone] the EC50 [3] was 200 nM, the EC50 [4] was 130 nM and the “maximum FI / maximum average overexpression level above controls, sult2st3” value [4] was 4.64–8.97. It also gave an EC50 ([1]; Danio rerio, read-out: EC50 dio2) of 80 nM, an LC50 [5] of 497000 nM and an EC50 (vitellogenin 1 (vtg1)) of 1720 nM. The EC50 [6] was 110 nM.
For `CC1(C)NC(=O)N(c2ccc([N+](=O)[O-])c(C(F)(F)F)c2)C1=O` [NIL, nilutamide], the “rescue of TES-induced sult2st3 overexpression” value [4, 10] is listed as “totally rescued”, the LC50 [5] is listed as 32800 nM and the Water solubility [2] is listed as 0.00419 mg/mL. For the same molecule, the “rescue of TES-induced cyp2k22 overexpression” value [6, 10] was “totally rescued”.
For `C[C@]12CC[C@H]3[C@@H](CCC4=CC(=O)CC[C@@]43C)[C@@H]1CC[C@@H]2O` [TES, testosterone], the EC50 [4] was 140 nM, the “maximum FI / maximum average overexpression level above controls, sult2st3” value [4] was 7.33 and 4.64–8.97 and the EC50 (thyroid peroxidase (tpo)) was 20 nM. For the same molecule, the EC50 (cyp19a1b - fluorescence; ref [3] (supplement list: Brion 2012)) was 1030 nM, the “LogEC50 (cyp19a1b - fluorescence)” value (cyp19a1b - fluorescence; log of EC50 in μM, ref [3] (supplement list)) was 0.01284 and the EC50 (cyp19a1b - mRNA; * mean of an approximate range, ref [27] (supplement list: Mouriec 2009)) was ~1000 nM. For the same molecule, the “LogEC50 (cyp19a1b - mRNA)” value (cyp19a1b - mRNA; log of EC50 in μM, ref [27] (supplement list)) was 0, the “LogEC50 (sult2st3 - cyp2k22 mRNA)” value (sult2st3 - cyp2k22 mRNA [7]; log of EC50 in μM) was -1.222 and the EC50 (sult2st3 - cyp2k22 mRNA [7]; read-out: EC50 (sult2st3 - cyp2k22 mRNA)) was 60 nM. The EC50 (vitellogenin 1 (vtg1)) was 1460 nM, the EC50 [6] was 740 nM and the “maximum average overexpression level above controls, cyp2k22” value ([6]; exposed 48–120 hpf, times above controls) was 4.01. For the same molecule, the EC50 (cyp19a1b - vtg1 mRNA; Danio rerio, read-out: EC50 (cyp19a1b - vtg1 mRNA)) was 1110 nM, the “LogEC50 (cyp19a1b - vtg1 mRNA)” value (cyp19a1b - vtg1 mRNA; [9]) was 0.04532 and the EC50 (sult2st3 - cyp2k22 mRNA [8]; Danio rerio, read-out: EC50 (sult2st3 - cyp2k22 mRNA)) was 440 nM. The “LogEC50 (sult2st3 - cyp2k22 mRNA)” value (sult2st3 - cyp2k22 mRNA [8]; [9]) was -0.3565.
With `C=CC1(C)OC(=O)N(c2cc(Cl)cc(Cl)c2)C1=O` (stereo not drawn) [VIN, vinclozolin] the “LC50, class symbol” value (zebrafish embryos) was “-”.
